Results taken from US10072026B2, “Crystalline form of 3-((1R,3s,5S)-3-((7-((5-methyl-1H-pyrazol-3-yl)amino)-1,6-naphthyridin-5-yl)amino)-8-azabicyclo[3.2.1]octan-8-yl)propanenitrile” (priority 2015, dated 2018).

Columns and labels:
[1] = molecular target: JAK1 (Homo sapiens (Human), UniProt P23458); experiment: LanthaScreen JAK biochemical assay (JAK1)
[2] = molecular target: JAK2 (Homo sapiens (Human), UniProt O60674); experiment: LanthaScreen JAK biochemical assay (JAK2)
[3] = tested on: IL-4 induced STAT6 phosphorylation in THP-1 human monocytic cells; experiment: Cellular JAK potency assay, THP-1
[4] = tested on: IL-13 induced STAT6 phosphorylation in BEAS-2B human lung epithelial cells; experiment: AlphaScreen cellular JAK potency assay, BEAS-2B
[5] = IL-4 induced STAT6 phosphorylation, THP-1 cells
[6] = IL-13 induced STAT6 phosphorylation, BEAS-2B cells
[7] = THP-1 cells, IL-4 induced STAT6 phosphorylation
[8] = BEAS-2B cells, IL-13 induced STAT6 phosphorylation

JAK2, sequence (O60674 whole entry): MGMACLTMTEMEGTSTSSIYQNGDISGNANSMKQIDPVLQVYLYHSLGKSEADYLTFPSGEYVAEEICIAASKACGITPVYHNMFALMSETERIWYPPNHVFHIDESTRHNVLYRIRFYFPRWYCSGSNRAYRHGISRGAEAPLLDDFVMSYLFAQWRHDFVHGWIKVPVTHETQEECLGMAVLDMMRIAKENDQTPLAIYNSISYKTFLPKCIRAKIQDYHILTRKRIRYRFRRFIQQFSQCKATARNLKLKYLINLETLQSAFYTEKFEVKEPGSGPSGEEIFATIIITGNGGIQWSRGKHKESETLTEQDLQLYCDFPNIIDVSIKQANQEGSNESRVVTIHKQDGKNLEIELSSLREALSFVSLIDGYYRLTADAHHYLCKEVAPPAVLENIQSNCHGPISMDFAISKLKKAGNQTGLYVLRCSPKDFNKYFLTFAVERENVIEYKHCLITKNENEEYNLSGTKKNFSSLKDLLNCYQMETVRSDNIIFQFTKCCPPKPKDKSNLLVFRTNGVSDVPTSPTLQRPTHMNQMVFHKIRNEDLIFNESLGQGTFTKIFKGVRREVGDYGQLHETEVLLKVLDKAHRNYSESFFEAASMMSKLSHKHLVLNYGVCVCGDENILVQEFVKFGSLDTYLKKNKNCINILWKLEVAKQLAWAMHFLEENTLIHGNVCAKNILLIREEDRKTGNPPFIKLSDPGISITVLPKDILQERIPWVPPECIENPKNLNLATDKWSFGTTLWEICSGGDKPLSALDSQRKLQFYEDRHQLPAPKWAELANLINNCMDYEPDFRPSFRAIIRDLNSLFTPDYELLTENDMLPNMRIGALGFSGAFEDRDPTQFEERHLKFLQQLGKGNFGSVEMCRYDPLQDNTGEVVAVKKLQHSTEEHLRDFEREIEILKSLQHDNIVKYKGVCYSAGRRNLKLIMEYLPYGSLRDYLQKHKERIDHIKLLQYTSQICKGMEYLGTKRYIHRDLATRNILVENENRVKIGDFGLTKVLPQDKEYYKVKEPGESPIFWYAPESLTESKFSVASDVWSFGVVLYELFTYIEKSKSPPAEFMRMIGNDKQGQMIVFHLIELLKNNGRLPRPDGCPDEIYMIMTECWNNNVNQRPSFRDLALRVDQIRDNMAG
JAK1, sequence (P23458 whole entry): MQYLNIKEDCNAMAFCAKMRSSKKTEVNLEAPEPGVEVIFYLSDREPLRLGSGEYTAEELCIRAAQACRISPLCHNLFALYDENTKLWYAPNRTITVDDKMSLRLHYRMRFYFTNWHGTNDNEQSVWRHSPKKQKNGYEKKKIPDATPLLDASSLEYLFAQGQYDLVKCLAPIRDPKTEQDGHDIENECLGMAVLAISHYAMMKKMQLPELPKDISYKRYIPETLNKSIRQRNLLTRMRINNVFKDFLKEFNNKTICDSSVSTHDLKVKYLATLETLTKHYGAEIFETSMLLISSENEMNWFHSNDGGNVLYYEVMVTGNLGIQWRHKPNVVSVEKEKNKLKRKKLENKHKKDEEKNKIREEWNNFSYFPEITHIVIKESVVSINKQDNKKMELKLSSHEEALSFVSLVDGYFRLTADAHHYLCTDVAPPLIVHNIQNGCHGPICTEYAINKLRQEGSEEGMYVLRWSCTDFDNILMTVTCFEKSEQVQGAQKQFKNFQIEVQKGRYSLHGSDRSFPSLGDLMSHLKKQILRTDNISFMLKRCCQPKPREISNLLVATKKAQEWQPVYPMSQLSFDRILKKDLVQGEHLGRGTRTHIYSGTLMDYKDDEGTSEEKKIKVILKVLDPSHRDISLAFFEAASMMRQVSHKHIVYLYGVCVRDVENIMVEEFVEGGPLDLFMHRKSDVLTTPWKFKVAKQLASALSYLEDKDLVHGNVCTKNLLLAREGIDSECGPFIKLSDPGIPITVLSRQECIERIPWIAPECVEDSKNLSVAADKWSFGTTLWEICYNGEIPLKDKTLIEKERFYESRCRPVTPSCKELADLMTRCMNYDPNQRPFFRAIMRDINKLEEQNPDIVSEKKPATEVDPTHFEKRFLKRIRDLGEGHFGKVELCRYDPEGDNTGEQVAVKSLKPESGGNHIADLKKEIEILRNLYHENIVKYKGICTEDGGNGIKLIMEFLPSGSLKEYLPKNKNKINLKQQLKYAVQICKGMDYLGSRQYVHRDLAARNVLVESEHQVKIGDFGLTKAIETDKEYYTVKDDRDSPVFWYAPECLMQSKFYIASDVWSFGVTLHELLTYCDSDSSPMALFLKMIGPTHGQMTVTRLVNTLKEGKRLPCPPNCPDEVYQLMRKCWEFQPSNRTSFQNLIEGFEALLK

Cc1cc(Nc2cc3ncccc3c(N[C@@H]3C[C@H]4CC[C@@H](C3)N4Cc3ccncc3)n2)n[nH]1 [Example 1-17]
JAK 1 (pKi) [1]: B (B represents a pKi value between 9 and 10 (Ki between 1 nM and 0.1 nM)) | JAK 2 (pKi) [2]: B (B represents a pKi value between 9 and 10 (Ki between 1 nM and 0.1 nM)) | THP-1 IL4 pIC50 [3, 5]: B (B represents a pEC50 value between 6.7 and 7.5 (EC50 between 200 nM and 32 nM)) | BEAS2B pIC50 [4, 6]: B (B represents a pEC50 value between 6.7 and 7.5 (EC50 between 200 nM and 32 nM))

Cc1cc(Nc2cc3ncccc3c(N[C@@H]3C[C@H]4CC[C@@H](C3)N4C(C)CC#N)n2)n[nH]1 (stereo partly shown) [Example 1-21]
JAK 1 (pKi) [1]: B (B represents a pKi value between 9 and 10 (Ki between 1 nM and 0.1 nM)) | JAK 2 (pKi) [2]: B (B represents a pKi value between 9 and 10 (Ki between 1 nM and 0.1 nM)) | THP-1 IL4 pIC50 [3, 5]: A (A represents a pEC50 value≥7.5 (EC50≤32 nM)) | BEAS2B pIC50 [4, 6]: B (B represents a pEC50 value between 6.7 and 7.5 (EC50 between 200 nM and 32 nM))

Cc1cc(Nc2cc3ncccc3c(N[C@@H]3C[C@H]4CC[C@@H](C3)N4CC(C)C#N)n2)n[nH]1 (stereo partly shown) [Example 1-23]
JAK 1 (pKi) [1]: A (A represents a pKi value≥10 (Ki≤0.1 nM)) | JAK 2 (pKi) [2]: A (A represents a pKi value≥10 (Ki≤0.1 nM)) | THP-1 IL4 pIC50 [3, 5]: A (A represents a pEC50 value≥7.5 (EC50≤32 nM)) | BEAS2B pIC50 [4, 6]: A (A represents a pEC50 value≥7.5 (EC50≤32 nM))

Cc1cc(Nc2cc3ncccc3c(N[C@@H]3C[C@H]4CCC[C@@H](C3)N4CCC#N)n2)n[nH]1 [Example 1-31]
JAK 1 (pKi) [1]: A (A represents a pKi value≥10 (Ki≤0.1 nM)) | JAK 2 (pKi) [2]: A (A represents a pKi value≥10 (Ki≤0.1 nM)) | THP-1 IL4 pIC50 [3, 5]: A (A represents a pEC50 value≥7.5 (EC50≤32 nM)) | BEAS2B pIC50 [4, 6]: A (A represents a pEC50 value≥7.5 (EC50≤32 nM))

Cc1cc(Nc2cc3ncccc3c(N[C@@H]3C[C@H]4CCC[C@@H](C3)N4CCF)n2)n[nH]1 [Example 1-39]
JAK 1 (pKi) [1]: B (B represents a pKi value between 9 and 10 (Ki between 1 nM and 0.1 nM)) | JAK 2 (pKi) [2]: B (B represents a pKi value between 9 and 10 (Ki between 1 nM and 0.1 nM)) | THP-1 IL4 pIC50 [3, 5]: A (A represents a pEC50 value≥7.5 (EC50≤32 nM)) | BEAS2B pIC50 [4, 6]: A (A represents a pEC50 value≥7.5 (EC50≤32 nM))

Cc1cc(Nc2cc3ncccc3c(N[C@@H]3C[C@H]4CCC[C@@H](C3)N4Cc3cccnc3)n2)n[nH]1 [Example 1-47]
JAK 2 (pKi) [2]: A (A represents a pKi value≥10 (Ki≤0.1 nM)) | THP-1 IL4 pIC50 [3, 5]: A (A represents a pEC50 value≥7.5 (EC50≤32 nM)) | BEAS2B pIC50 [4, 6]: A (A represents a pEC50 value≥7.5 (EC50≤32 nM))

Cc1cc(Nc2cc3ncccc3c(N[C@@H]3C[C@H]4CCC[C@@H](C3)N4C(=O)c3ccccc3)n2)n[nH]1 [Example 2-25]
JAK 2 (pKi) [2]: A (A represents a pKi value≥10 (Ki≤0.1 nM)) | THP-1 IL4 pIC50 [3, 5]: A (A represents a pEC50 value≥7.5 (EC50≤32 nM)) | BEAS2B pIC50 [4, 6]: A (A represents a pEC50 value≥7.5 (EC50≤32 nM))

Cc1cc(Nc2cc3ncccc3c(N[C@@H]3C[C@H]4CCC[C@@H](C3)N4C(=O)c3cncc(C#N)c3)n2)n[nH]1 [Example 2-26]
JAK 1 (pKi) [1]: B (B represents a pKi value between 9 and 10 (Ki between 1 nM and 0.1 nM)) | JAK 2 (pKi) [2]: B (B represents a pKi value between 9 and 10 (Ki between 1 nM and 0.1 nM)) | BEAS2B pIC50 [4, 6]: C (C represents a pEC50 value<6.7 (EC50>200 nM))

Cc1cc(Nc2cc3ncccc3c(N[C@@H]3C[C@H]4CCC[C@@H](C3)N4C(=O)c3ccnc(C#N)c3)n2)n[nH]1 [Example 2-30]
JAK 1 (pKi) [1]: B (B represents a pKi value between 9 and 10 (Ki between 1 nM and 0.1 nM)) | JAK 2 (pKi) [2]: B (B represents a pKi value between 9 and 10 (Ki between 1 nM and 0.1 nM)) | BEAS2B pIC50 [4, 6]: C (C represents a pEC50 value<6.7 (EC50>200 nM))

Cc1cc(Nc2cc3ncccc3c(N[C@@H]3C[C@H]4CCC[C@@H](C3)N4C(=O)CCC(C)C)n2)n[nH]1 [Example 2-31]
JAK 1 (pKi) [1]: B (B represents a pKi value between 9 and 10 (Ki between 1 nM and 0.1 nM)) | JAK 2 (pKi) [2]: B (B represents a pKi value between 9 and 10 (Ki between 1 nM and 0.1 nM)) | BEAS2B pIC50 [4, 6]: B (B represents a pEC50 value between 6.7 and 7.5 (EC50 between 200 nM and 32 nM))

CCC(C)OC(=O)N1[C@@H]2CCC[C@H]1C[C@H](Nc1nc(Nc3cc(C)[nH]n3)cc3ncccc13)C2 (stereo partly shown) [Example 3-12]
JAK 1 (pKi) [1]: B (B represents a pKi value between 9 and 10 (Ki between 1 nM and 0.1 nM)) | JAK 2 (pKi) [2]: B (B represents a pKi value between 9 and 10 (Ki between 1 nM and 0.1 nM)) | BEAS2B pIC50 [4, 6]: B (B represents a pEC50 value between 6.7 and 7.5 (EC50 between 200 nM and 32 nM))

CCC1(S(=O)(=O)N2[C@@H]3CCC[C@H]2C[C@H](Nc2nc(Nc4cc(C)[nH]n4)cc4ncccc24)C3)CC1 [Example 4-20]
JAK 2 (pKi) [2]: A (A represents a pKi value≥10 (Ki≤0.1 nM)) | THP-1 IL4 pIC50 [3, 5]: A (A represents a pEC50 value≥7.5 (EC50≤32 nM)) | BEAS2B pIC50 [4, 6]: A (A represents a pEC50 value≥7.5 (EC50≤32 nM))

Cc1cc(Nc2cc3nc(CN4CCOCC4)ccc3c(N[C@@H]3C[C@H]4CCC[C@@H](C3)N4S(=O)(=O)c3cncc(F)c3)n2)n[nH]1 [Example 5-30]
JAK 2 (pKi) [2]: A (A represents a pKi value≥10 (Ki≤0.1 nM)) | THP-1 IL4 pIC50 [3, 5]: A (A represents a pEC50 value≥7.5 (EC50≤32 nM)) | BEAS2B pIC50 [4, 6]: A (A represents a pEC50 value≥7.5 (EC50≤32 nM))

Cc1cnc2cc(Nc3cc(C)[nH]n3)nc(N[C@@H]3C[C@H]4CCC[C@@H](C3)N4S(=O)(=O)N3CC(C#N)C3)c2c1 [Example 6-9]
JAK 2 (pKi) [2]: A (A represents a pKi value≥10 (Ki≤0.1 nM)) | THP-1 IL4 pIC50 [3, 7]: A (A represents a pEC50 value≥7.5 (EC50≤32 nM)) | BEAS2B pIC50 [4, 8]: A (A represents a pEC50 value≥7.5 (EC50≤32 nM))

COC(=O)c1cnc2cc(Nc3cc(C)[nH]n3)nc(N[C@@H]3C[C@H]4CC[C@@H](C3)N4CC(=O)OC(C)C)c2c1 [Example 6-41]
JAK 2 (pKi) [2]: B (B represents a pKi value between 9 and 10 (Ki between 1 nM and 0.1 nM)) | THP-1 IL4 pIC50 [3, 7]: A (A represents a pEC50 value≥7.5 (EC50≤32 nM)) | BEAS2B pIC50 [4, 8]: B (B represents a pEC50 value between 6.7 and 7.5 (EC50 between 200 nM and 32 nM))

Cc1cc(Nc2cc3ncc(S(C)(=O)=O)cc3c(N[C@@H]3C[C@H]4CC[C@@H](C3)N4Cc3ccncc3)n2)n[nH]1 [Example 6-59]
JAK 2 (pKi) [2]: A (A represents a pKi value≥10 (Ki≤0.1 nM)) | BEAS2B pIC50 [4, 8]: C (C represents a pEC50 value<6.7 (EC50>200 nM))

Cc1cc(Nc2cc3ncc(S(C)(=O)=O)cc3c(N[C@@H]3C[C@H]4CCC[C@@H](C3)N4Cc3ccncc3)n2)n[nH]1 [Example 6-60]
JAK 1 (pKi) [1]: A (A represents a pKi value≥10 (Ki≤0.1 nM)) | JAK 2 (pKi) [2]: A (A represents a pKi value≥10 (Ki≤0.1 nM)) | BEAS2B pIC50 [4, 8]: B (B represents a pEC50 value between 6.7 and 7.5 (EC50 between 200 nM and 32 nM))
